Experimental data as given in patent US20230257372A1 (CHONG KUN DANG PHARMACEUTICAL CORP., priority 2020, published 2023).

Columns and labels:
[1] = target: T1, human recombinant HDAC6 (Homo sapiens, UniProt Q9UBN7); assay: HDAC6 enzyme activity inhibition (HDAC Fluorimetric Drug Discovery Kit); assay type: biochemical; details: for HDAC6 selectivity (fold): HDAC6 over HDAC1; for IC50: human recombinant HDAC6, same protocol as HDAC1
T1 construct: purchased Calbiochem Inc. 382180
T1 sequence (Q9UBN7 1-1215): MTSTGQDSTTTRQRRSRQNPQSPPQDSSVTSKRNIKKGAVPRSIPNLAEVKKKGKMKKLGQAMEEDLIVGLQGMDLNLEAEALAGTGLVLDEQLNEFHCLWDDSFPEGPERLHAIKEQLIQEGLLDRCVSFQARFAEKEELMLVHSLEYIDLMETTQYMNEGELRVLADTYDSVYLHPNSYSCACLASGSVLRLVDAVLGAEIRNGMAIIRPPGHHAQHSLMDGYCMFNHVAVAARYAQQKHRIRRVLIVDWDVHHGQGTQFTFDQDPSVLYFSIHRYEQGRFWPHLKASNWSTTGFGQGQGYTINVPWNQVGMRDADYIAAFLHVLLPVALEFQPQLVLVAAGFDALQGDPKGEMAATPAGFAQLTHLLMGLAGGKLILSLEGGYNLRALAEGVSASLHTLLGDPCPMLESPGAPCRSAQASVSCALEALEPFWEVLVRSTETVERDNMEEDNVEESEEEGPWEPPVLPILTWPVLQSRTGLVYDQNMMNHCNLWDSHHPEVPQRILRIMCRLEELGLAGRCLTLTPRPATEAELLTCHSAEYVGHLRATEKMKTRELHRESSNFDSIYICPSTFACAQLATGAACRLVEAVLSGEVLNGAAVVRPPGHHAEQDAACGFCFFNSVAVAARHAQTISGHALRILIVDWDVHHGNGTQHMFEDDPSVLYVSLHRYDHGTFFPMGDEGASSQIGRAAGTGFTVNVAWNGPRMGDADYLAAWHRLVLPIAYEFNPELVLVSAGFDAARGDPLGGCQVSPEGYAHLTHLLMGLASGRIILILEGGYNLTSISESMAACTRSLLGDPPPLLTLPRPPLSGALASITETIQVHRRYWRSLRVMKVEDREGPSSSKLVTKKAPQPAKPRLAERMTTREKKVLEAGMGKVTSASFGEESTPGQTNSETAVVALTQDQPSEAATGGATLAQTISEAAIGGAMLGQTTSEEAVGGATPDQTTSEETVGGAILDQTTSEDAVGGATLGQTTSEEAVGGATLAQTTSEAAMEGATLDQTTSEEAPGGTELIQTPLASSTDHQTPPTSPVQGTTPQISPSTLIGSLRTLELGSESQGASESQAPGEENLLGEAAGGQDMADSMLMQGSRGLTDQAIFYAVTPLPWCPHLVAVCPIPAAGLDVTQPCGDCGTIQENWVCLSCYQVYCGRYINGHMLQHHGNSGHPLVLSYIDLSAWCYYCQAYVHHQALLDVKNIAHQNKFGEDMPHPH
Summary of the method: (§1)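 Fluorimetric deacetylase read-out: after 30 min with Developer II following a 60 min, 30° C reaction of recombinant enzyme ([…]) with 10 μM substrate, across five-fold serial compound dilutions.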

[2] = target: T2, human recombinant HDAC1 (Homo sapiens, UniProt Q13547); assay: HDAC1 enzyme activity inhibition (HDAC Fluorimetric Drug Discovery Kit); assay type: biochemical; details: human recombinant HDAC1, Fluor de Lys substrate, 30° C. 60 minutes; read-out: HDAC1
T2 construct: purchased Enzo Life Science, Inc. BML-SE456
Summary of the method: as §1

T2 sequence (Q13547 whole entry): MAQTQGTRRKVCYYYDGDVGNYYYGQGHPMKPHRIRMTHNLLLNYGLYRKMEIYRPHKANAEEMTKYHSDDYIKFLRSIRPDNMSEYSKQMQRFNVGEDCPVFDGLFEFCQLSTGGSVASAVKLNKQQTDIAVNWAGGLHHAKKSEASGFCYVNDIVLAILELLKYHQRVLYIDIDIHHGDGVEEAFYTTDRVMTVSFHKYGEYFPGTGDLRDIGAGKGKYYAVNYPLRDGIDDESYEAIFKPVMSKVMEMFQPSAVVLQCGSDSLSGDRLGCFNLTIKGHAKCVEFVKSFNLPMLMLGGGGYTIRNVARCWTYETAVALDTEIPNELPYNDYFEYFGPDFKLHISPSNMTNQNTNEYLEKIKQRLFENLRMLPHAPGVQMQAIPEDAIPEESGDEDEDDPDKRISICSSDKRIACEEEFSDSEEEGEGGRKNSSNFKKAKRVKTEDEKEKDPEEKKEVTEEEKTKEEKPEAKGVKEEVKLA

SMILES	HDAC6 selectivity (fold) [1] [fold]	IC50 [1] [nM]	IC50 [2] [nM]
Fc1cc(-c2nnc(C(F)F)o2)ccc1Cn1cc(-c2ccc(CNC3CCCC3)cc2)nn1 [Compound 4609, N-(4-(1-(4-(5-(difluoromethyl)-1,3,4-oxadiazol-2-yl)-2-fluorobenzyl)-1H-1,2,3-triazol-4-yl)benzyl)cyclopentanamine]	3164	15.8	> 50000
Fc1cc(-c2nnc(C(F)F)o2)ccc1Cn1cc(-c2ccc(CN3CCCCC3)cc2)nn1 [Compound 4610, 2-(difluoromethyl)-5-(3-fluoro-4-((4-(4-(piperidin-1-ylmethyl)phenyl)-1H-1,2,3-triazol-1-yl)methyl)phenyl)-1,3,4-oxadiazole]	3496	14.3	> 50000
CC1CCN(Cc2ccc(-c3cn(Cc4ccc(-c5nnc(C(F)F)o5)cc4F)nn3)cc2)CC1 [Compound 4611, 2-(difluoromethyl)-5-(3-fluoro-4-((4-(4-((4-methylpiperidin-1-yl)methyl)phenyl)-1H-1,2,3-triazol-1-yl)methyl)phenyl)-1,3,4-oxadiazole]	2793	17.9	> 50000
CCN1CCN(c2cc(-c3cn(Cc4ccc(-c5nnc(C(F)F)o5)cc4F)nn3)ccn2)CC1 [Compound 4634, 2-(difluoromethyl)-5-(4-((4-(2-(4-ethylpiperazin-1-yl)pyridin-4-yl)-1H-1,2,3-triazol-1-yl)methyl)-3-fluorophenyl)-1,3,4-oxadiazole]	2074	24.1	> 50000
CC(C)N1CCN(c2cc(-c3cn(Cc4ccc(-c5nnc(C(F)F)o5)cc4F)nn3)ccn2)CC1 [Compound 4635]	2525	19.8	> 50000
Fc1cc(-c2nnc(C(F)F)o2)ccc1Cn1cc(-c2ccnc(N3CCN(C4COC4)CC3)c2)nn1 [Compound 4636]	1567	31.9	> 50000
Fc1cc(-c2nnc(C(F)F)o2)ccc1Cn1cc(-c2ccnc(N3CCN(C4CCC4)CC3)c2)nn1 [Compound 4640, 2-(4-((4-(2-(4-cyclobutylpiperazin-1-yl)pyridin-4-yl)-1H-1,2,3-triazol-1-yl)methyl)-3-fluorophenyl)-5-(difluoromethyl)-1,3,4-oxadiazole]	807	61.9	> 50000
Fc1cc(-c2nnc(C(F)F)o2)ccc1Cn1cc(-c2ccc(Cl)nc2)nn1 [Compound 16781, 2-(4-((4-(6-chloropyridin-3-yl)-1H-1,2,3-triazol-1-yl)methyl)-3-fluorophenyl)-5-(difluoromethyl)-1,3,4-oxadiazole]	546	91.5	> 50000
CN1CCN(c2ccc(-c3cn(Cc4ccc(-c5nnc(C(F)F)o5)cc4F)nn3)cn2)CC1 [Compound 16789, 2-(difluoromethyl)-5-(3-fluoro-4-((4-(6-(4-methylpiperazin-1-yl)pyridin-3-yl)-1H-1,2,3-triazol-1-yl)methyl)phenyl)-1,3,4-oxadiazole]	628	79.5	> 50000
Fc1cc(-c2nnc(C(F)F)o2)ccc1Cn1cc(-c2ccc(N3CCNCC3)cc2F)nn1 [Compound 16797, 2-(difluoromethyl)-5-(3-fluoro-4-((4-(2-fluoro-4-(piperazin-1-yl)phenyl)-1H-1,2,3-triazol-1-yl)methyl)phenyl)-1,3,4-oxadiazole]	738	67.7	> 50000
Fc1cc(-c2nnc(C(F)F)o2)ccc1Cn1cc(-c2ccc(Br)cn2)nn1 [Compound 16928, 2-(4-((4-(5-bromopyridin-2-yl)-1H-1,2,3-triazol-1-yl)methyl)-3-fluorophenyl)-5-(difluoromethyl)-1,3,4-oxadiazole]	586	85.3	> 50000
Fc1cc(-c2nnc(C(F)F)o2)ccc1Cn1cc(-c2cncc(Br)c2)nn1 [Compound 16930, 2-(4-((4-(5-bromopyridin-3-yl)-1H-1,2,3-triazol-1-yl)methyl)-3-fluorophenyl)-5-(difluoromethyl)-1,3,4-oxadiazole]	1043	47.9	> 50000
Fc1cc(-c2nnc(C(F)F)o2)ccc1Cn1cc(-c2cncc(-c3cn[nH]c3)c2)nn1 [Compound 17058, 2-(4-((4-(5-(1H-pyrazol-4-yl)pyridin-3-yl)-1H-1,2,3-triazol-1-yl)methyl)-3-fluorophenyl)-5-(difluoromethyl)-1,3,4-oxadiazole]	2777	18	> 50000
Fc1cc(-c2nnc(C(F)F)o2)ccc1Cn1cc(-c2cn[nH]c2)nn1 [Compound 17261, 2-(4-((4-(1H-pyrazol-4-yl)-1H-1,2,3-triazol-1-yl)methyl)-3-fluorophenyl)-5-(difluoromethyl)-1,3,4-oxadiazole]	1012	49.4	> 50000
Fc1cc(-c2nnc(C(F)F)o2)ccc1Cn1cc(-c2cccc(Br)n2)nn1 [Compound 17263, 2-(4-((4-(6-bromopyridin-2-yl)-1H-1,2,3-triazol-1-yl)methyl)-3-fluorophenyl)-5-(difluoromethyl)-1,3,4-oxadiazole]	1126	44.4	> 50000
Fc1cc(-c2nnc(C(F)F)o2)cnc1Cn1cc(-c2ccccc2)nn1 [Compound 17347, 2-(difluoromethyl)-5-(5-fluoro-6-((4-phenyl-1H-1,2,3-triazol-1-yl)methyl)pyridin-3-yl)-1,3,4-oxadiazole]	628	79.6	> 50000
CCN1CCN(c2cccc(-c3cn(Cc4ccc(-c5nnc(C(F)F)o5)cc4F)nn3)n2)CC1 [Compound 17362, 2-(difluoromethyl)-5-(4-((4-(6-(4-ethylpiperazin-1-yl)pyridin-2-yl)-1H-1,2,3-triazol-1-yl)methyl)-3-fluorophenyl)-1,3,4-oxadiazole]	2032	24.6	> 50000
Fc1cc(-c2nnc(C(F)F)o2)ccc1Cn1cc(-c2cccc(N3CCN(C4CCC4)CC3)n2)nn1 [Compound 17364, 2-(4-((4-(6-(4-cyclobutylpiperazin-1-yl)pyridin-2-yl)-1H-1,2,3-triazol-1-yl)methyl)-3-fluorophenyl)-5-(difluoromethyl)-1,3,4-oxadiazole]	976	51.2	> 50000
Fc1cc(-c2nnc(C(F)F)o2)ccc1Cn1cc(-c2cccc(N3CCN(C4COC4)CC3)n2)nn1 [Compound 17365, 2-(difluoromethyl)-5-(3-fluoro-4-((4-(6-(4-(oxetan-3-yl)piperazin-1-yl)pyridin-2-yl)-1H-1,2,3-triazol-1-yl)methyl)phenyl)-1,3,4-oxadiazole]	1377	36.3	> 50000
Fc1cc(-c2nnc(C(F)F)o2)ccc1Cn1cc(-c2ccc3c(c2)CN(C2CCOCC2)C3)nn1 [Compound 17458, 2-(difluoromethyl)-5-(3-fluoro-4-((4-(2-(tetrahydro-2H-pyran-4-yl)isoindolin-5-yl)-1H-1,2,3-triazol-1-yl)methyl)phenyl)-1,3,4-oxadiazole]	619	80.7	> 50000
Fc1cc(-c2nnc(C(F)F)o2)ccc1Cn1cc(-c2ccc3c(c2)CN(CC2(F)CC2)C3)nn1 [Compound 17460, 2-(difluoromethyl)-5-(3-fluoro-4-((4-(2-((1-fluorocyclopropyl)methyl)isoindolin-5-yl)-1H-1,2,3-triazol-1-yl)methyl)phenyl)-1,3,4-oxadiazole]	572	87.4	> 50000
